Columns and labels:
tumor cells = assay: Growth in mice of a small number of tumor cells pre-treated with PGE2; assay type: in vivo; conditions: about 1000 tumor cells treated with PGE2 versus non-treated cells
Description: (§1) Growth of Fluc-labeled tumor cells in vivo was followed through non-invasive bioluminescence imaging using the IVIS200 instrument (Caliper Life Sciences, Hopkinton, Mass). Mice to be imaged were injected with 150 mg/kg of D-luciferin (obtained from Caliper Life Sciences) intraperitoneally in 200 μl of PBS and then anesthetized with continuous flow of isofluorane. Imaging of the mice was carried out 10 minutes later. The time between injection and imaging were kept constant among different batches of mice.
(§2) Different approaches were used to establish tumor growth than traditionally adopted by other studies. In most of the studies by the present inventors, a very small number of Fluc-labeled tumor cells (500-1000 cells each) was injected either alone or together with other unlabeled cells (either tumor cells or fibroblast cells) that are either irradiated or un-irradiated. Tumor growth from these cells was monitored through the quantification of bioluminescence signals emitted from labeled tumor cells using IVIS200 instrument following manufacturer's instructions. In some cases, 500-1000 Fluc labeled tumor cells were injected into (7-9 mm in diameter) tumors that have been established from unlabeled tumor cells.

4T1 cells = assay: Growth of tumor cells injected intratumorally into established tumors in mice, 4T1; assay type: in vivo, mouse; conditions: indomethacin administration
Description: as §1
as §2, with “cells. […]” for “cells.”

HCT116 cells = assay: Growth of tumor cells injected intratumorally into established tumors in mice, HCT116; assay type: in vivo, human; conditions: indomethacin administration
Description: as §1
as §2, with “cells. […]” for “cells.”

| Compound | growth of treated tumor cells when injected into mice (tumor cells) | growth of intratumorally injected 4T1 cells (4T1 cells) | growth of intratumorally injected HCT116 cells (HCT116 cells) |
| --- | --- | --- | --- |
| CCCCC[C@H](O)/C=C/[C@H]1[C@H](O)CC(=O)[C@@H]1C/C=C\CCCC(=O)O [PGE2, prostaglandin E2] | grow at a faster pace than non-treated cells | – | – |
| COc1ccc2c(c1)c(CC(=O)O)c(C)n2C(=O)c1ccc(Cl)cc1 [indomethacin] | – | effectively suppressed growth | effectively suppressed growth |

From patent US20150190456A1, “USE OF CASPASE 3 ACTIVITY AND ITS INHIBITORS” (THE REGENTS OF THE UNIVERSITY OF COLORADO, priority 2011, published 2015)
